These results are taken from patent US5958966A, “Treatment of aberrant cellular states with biomodulators” (University of New Mexico, priority 1995, dated 1999).

Entries after “also recorded” stand apart in the source; their conditions may differ.

The test system of one assay is canine glioma (CG) cells. Kind of assay: proton NMR T-2* linewidth of canine glioma cells. The class given is cell-based. Also on record: T-2* linewidth / T-2* linewidth after treatment withdrawal / T-2* linewidth after t-butanol extraction: unit not given here. Particulars: for T-2* linewidth after treatment withdrawal: 4 weeks treatment then 1 week without, mean ± SD of 3; for T-2* linewidth after t-butanol extraction: treated CG cells. The method, then:
The cells used for all these experiments are between passage 30 and passage 75.
The cell surface oligosaccharide display was assessed by methods developed previously. In brief, cells from a sub-culturing were aliquotted into 96 well trays at 5×10^5 cells per ml, 100 μL aliquots. […] Optimal lectin concentrations (5 μg/ml)were used to give 80 to 90% saturation of the available sites. Three carbohydrate ligands at 10 μg concentrations in triplicate or quadruplicate were then used to prepare competition curves for the lectin binding. The Bound over Free (B/F) ratio was calculated and the Ligand microprocessor program was used to determine the optimal fit of the data to a polynomial generated model. The Gibb's Free Energy (GFE) was calculated from the Scatchard data on the competition assay by the following equation: GFE=-RT 1n Kequit. The proton NMR linewidth measurements were conducted as described previously.

The subject of assay [1] is plaque forming cells (splenocytes). Kind of assay: effect of swainsonine on humoral immunity (PFC assay). The class given is in vivo, mouse. Particulars: for PFC versus control in words: listed as Sw. The method, then:
The plaque forming cell (PFC) assay was done according to the method developed by Jerne and Nordin (1963). The splenocytes were washed in serum-free RPMI-1640 and brought to a final concentration of 1×10^6 cell/100 μl. Sheep red blood cells (sRBC), from The Colorado Serum Company, were labelled with protein A from Staphylococcus aureus (Sigma). The sRBC's were washed 3 times with saline (0.85% NaCl), the packed cells were then incubated with 1 ml of protein A (0.5 mg/ml saline) and 10 ml of saline containing 0.1 μl of CrCl3 (35% solution) (Aldrich), for 20 minutes. The sRBC's were then washed 3 times with PBS and suspended in PBS to make a 30% solution. The sRBC's (50 μl) and splenocytes (100 μl) were combined with SeaPlaque agarose (FMC Corporation) and smeared on a 75 mm×50 mm microscope slide to form a lawn of target red blood cells with uniformly dispersed effector cells. Each sample was done in triplicate. The agarose was allowed to harden and the slides were placed in trays containing serum-free RPMI-1640. The trays were incubated at 37° C. in a CO2 incubator for 90 min. After incubation the slides were placed in slide holders containing normal saline for a wash step. The rabbit/anti-mouse antibody (DAKO Corporation) was diluted 1:400 with serum free RPMI-1640 and added to the slide trays. Following another 90 min. incubation at 37° C. in a CO2 incubator, the slides were again washed. Fresh frozen guinea pig complement (GIBCO) (2%) in serum-free RPMI-1640 was added to the slide trays and incubated for another 60 to 90 min. depending on the time necessary for plaque formation. The number of plaques were counted and the results reported as number of plaque forming cells per 1×10^6 splenocytes.
Mice were pretreated for 3 weeks with Sw (0.1 μg and 0.01 μg), and then received B16 cells. At 3 time points post tumor cell injection (day 0, 7 and 14), the mice were sacrificed and the spleens were removed. The cells were then used to determine the effect of Sw on humoral immunity. […] The presence of a day 7 tumor caused a return to baseline for all the groups. A significant difference (p=0.001) was seen on day 14 post tumor injection with the mice treated with 0.01 μg Sw.

The next assay relates to α-mannosidase II. Particulars: cited from earlier work.

`O[C@H]1[C@H]2[C@H](O)CCCN2C[C@H]1O` [Swainsonine, swainsonine]: the “T-2* linewidth after treatment withdrawal” value in the assay on canine glioma (CG) cells (213 k) is listed as 520 ± 26; in the assay with canine glioma (CG) cells (223 k), 510 ± 18; in the assay on canine glioma (CG) cells (233 k), 430 ± 15; with canine glioma (CG) cells (243 k), 360 ± 10. The “linewidth after withdrawal versus untreated control” value in the assay on canine glioma (CG) cells (4 weeks treatment, 1 week withdrawal) was “still significantly different from control values”. For the same molecule, the linewidth change entry in the assay with canine glioma (CG) cells (CG cells, biomodulator treatment versus control, listed as Sw) was “significant (P>0.01) decreases in linewidth; also recorded: higher level of linewidth reduction than the PWM treatment”. Besides, the “T-2* linewidth” value with canine glioma (CG) cells (Four week of treatment, 213 k, mean ± SD of triplicate) turned out to be 480 ± 35; in the assay with canine glioma (CG) cells (Four week of treatment, 223 k, mean ± SD of triplicate), 330 ± 40; with canine glioma (CG) cells (Four week of treatment, 233 k, mean ± SD of triplicate), 300 ± 8; with canine glioma (CG) cells (Four week of treatment, 243 k, mean ± SD of triplicate) it was 230 ± 10; in the assay on canine glioma (CG) cells (One week of treatment, 213 k) it was 580; in the assay on canine glioma (CG) cells (One week of treatment, 223 k) it was 325. Besides, the “T-2* linewidth” value is on record as 285 with canine glioma (CG) cells (One week of treatment, 233 k) and 265 with canine glioma (CG) cells (One week of treatment, 243 k). The “T-2* linewidth after t-butanol extraction” value in the assay on canine glioma (CG) cells (213 k, extracted control 367 ± 15) amounted to 316 ± 33; in the assay with canine glioma (CG) cells (223 k, extracted control 337 ± 29), 271 ± 13; with canine glioma (CG) cells (233 k, extracted control 299 ± 30) it was 243 ± 29; in the assay with canine glioma (CG) cells (243 k, extracted control 229 ± 9), 194 ± 7. Further, in assay [1] (0.01 μg Sw, before tumor, p=0.001), the “increase in plaque forming cells” value is reported as 89%. The “increase in PFC over mice without Sw with day 14 tumors” value in assay [1] (0.01 μg Sw, day 14) is 108%. Besides, the “increase in PFC over mice without tumors or treatment” value in assay [1] (0.01 μg Sw, day 14) was determined as 144%. For the same molecule, the “PFC versus control in words” value was “not as significantly different from the control group; also recorded: significant changes in the formation of plaques prior to tumor exposure” in assay [1] (0.1 μg Sw without tumor (p=0.04)); “not a significant difference between the controls and these treated mice; also recorded: even higher levels” in assay [1] (0.1 μg Sw, day 14 (p=0.13)). Further, the “inhibition of α-mannosidase II / anticancer effects” value with α-mannosidase II was “known to have anticancer effects possibly mediated through its inhibition of α-mannosidase II”.
